Measurements taken from ChEMBL document CHEMBL5357073, “Novel Heterocyclic PAD4 Inhibitors for Treating Multiple Diseases” (ACS Med Chem Lett, 2024).

Target: Protein-arginine deiminase type-4 (Homo sapiens, UniProt Q9UM07)
Assay: Inhibition of human recombinant PAD4 using TSTGGRQGSHH peptide as substrate preincubated for 30 mins followed by substrate addition and measured after 90 mins by RapidFire mass spectroscopy analysis

Sequence of Protein-arginine deiminase type-4 (Q9UM07 whole entry): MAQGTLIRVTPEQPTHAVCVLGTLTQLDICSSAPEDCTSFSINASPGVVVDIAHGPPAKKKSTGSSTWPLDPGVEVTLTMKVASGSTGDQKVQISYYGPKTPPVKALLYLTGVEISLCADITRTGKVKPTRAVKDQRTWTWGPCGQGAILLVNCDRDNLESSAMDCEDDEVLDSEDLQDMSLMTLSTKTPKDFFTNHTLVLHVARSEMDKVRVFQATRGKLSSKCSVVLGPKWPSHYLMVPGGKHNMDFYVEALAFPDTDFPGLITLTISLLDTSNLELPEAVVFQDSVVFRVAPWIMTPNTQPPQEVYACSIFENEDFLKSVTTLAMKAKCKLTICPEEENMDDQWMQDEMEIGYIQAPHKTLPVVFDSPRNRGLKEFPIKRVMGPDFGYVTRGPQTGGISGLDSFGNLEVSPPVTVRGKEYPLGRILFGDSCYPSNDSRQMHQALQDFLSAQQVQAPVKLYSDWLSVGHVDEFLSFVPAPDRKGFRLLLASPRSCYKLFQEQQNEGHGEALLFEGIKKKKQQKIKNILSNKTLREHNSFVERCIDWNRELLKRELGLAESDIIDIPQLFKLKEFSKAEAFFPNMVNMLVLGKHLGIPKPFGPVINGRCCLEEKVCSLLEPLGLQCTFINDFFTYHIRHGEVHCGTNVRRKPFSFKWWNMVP

Row | Structure (SMILES) | IC50 [nM]
1 | Cn1c(-c2cc3cccc(OCCc4cnoc4)c3n2CC2CC2)nc2cc3c(cc21)CCN(CC(N)CF)C3=O (stereo unspecified) | ≤ 10
2 | Cn1c(-c2cc3cccc(OCC4CNC(=O)O4)c3n2CC2CC2)nc2cc3c(cc21)CCN(CC(N)CF)C3=O (stereo unspecified) | ≤ 10
3 | COC(=O)N(C)CCOc1cccc2cc(-c3nc4cc5c(cc4n3C)CCN(CC(N)CF)C5=O)n(CC3CC3)c12 (stereo unspecified) | ≤ 10

Other lines, results leading:

Row | IC50 [nM] | Structure (SMILES)
4 | ≤ 10 | Cn1c(-c2cc3cccc(OCCn4ccnc4)c3n2CC2CC2)nc2cc3c(cc21)CCN(CC(N)CF)C3=O (stereo unspecified)
5 | ≤ 10 | Cn1c(-c2cc3cccc(OCCn4cnnn4)c3n2CC2CC2)nc2cc3c(cc21)CCN(CC(N)CF)C3=O (stereo unspecified)
6 | ≤ 10 | Cn1c(-c2cc3cccc(OCCn4cncn4)c3n2CC2CC2)nc2cc3c(cc21)CCN(CC(N)CF)C3=O (stereo unspecified)
